From US4340595A, “Aminopropanol derivatives of 6-hydroxy-2,3,4,5-tetrahydro-1H-1-benzazepin-2-one and pharmaceutical formulations containing the said compounds” (BASF Aktiengesellschaft, priority 1978, dated 1982)
Structures can show the parent of a compound that is named as a salt. Where two headings read alike, the source gives them in different places.

Key:
[1] = system: isoproterenol-induced tachycardia; test: β-sympatholytic action in cats: inhibition of isoproterenol-induced tachycardia; type: in vivo, cat (male and female, mongrels); conditions: for ED (50-60%): Felis catus, hexobarbital narcosis; for ED (50-60%) / factor by which the dose required for 50-60% inhibition is lower than the corresponding dose of propranolol, intraduodenal / % inhibition of isoproterenol-induced tachycardia, intraduodenal administration / factor by which the dose required is lowered compared with propranolol, intravenous / % inhibition of isoproterenol-induced tachycardia, intravenous administration: cats; for factor by which the dose required for 50-60% inhibition is lower than the corresponding dose of propranolol, intraduodenal: enteral (intraduodenal) administration; for factor by which the dose required for 50-60% inhibition is lower than the corresponding dose of propranolol, intraduodenal / factor by which the dose required is lowered compared with propranolol, intravenous: vs propranolol; for % inhibition of isoproterenol-induced tachycardia, intraduodenal administration: at the mg/kg dose of the same line (E3); for factor by which the dose required is lowered compared with propranolol, intravenous: intravenous administration; for % inhibition of isoproterenol-induced tachycardia, intravenous administration: at the mg/kg dose of the same line (E1)
Protocol: (§1) The β-sympatholytic action was tested on cats and dogs. The comparative compound used was the conventional β-sympatholytic agent propranolol. The isoproterenol-induced tachycardia model was used for the test.
Isoproterenol (1 μg/kg, administered intravenously) produces increases in heart rate averaging 61±2.4 beats/min. in cats (male and female, mongrels, weighing 1.7 to 4.0 kg) narcotized with hexobarbital (200 mg/kg administered intramuscularly). β-Sympatholytic agents inhibit this tachycardia. Isoproterenol was injected before, and 10 minutes after, the intravenous administration, or 30 minutes after the intraduodenal administration, of the test substances. The doses which inhibit the isoproterenol-induced tachycardia by 50-60% were determined.

[2] = system: isoproterenol-induced tachycardia; test: β-sympatholytic action in conscious dogs: inhibition of isoproterenol-induced tachycardia; type: in vivo, dog; conditions: for ED50: Canis lupus familiaris, 10 min, read-out: ED 50% (dose which inhibits the isoproterenol-induced tachycardia by 50%)
Protocol: as §1
Isoproterenol was administered before and 10 minutes after the intravenous administration of the test substances.

[3] = acute toxicity, intraperitoneal administration to mice; set-up: species or system mouse (NMRI, female); conditions: mouse, in vivo, ip, Probit analysis
[4] = 10 min, intravenous, isoproterenol 1 μg/kg i.v. 10 minutes after test substance, read-out: dose inhibiting isoproterenol-induced tachycardia by 50-60%, intravenous administration
[5] = 0.5 h, intraduodenal, isoproterenol 1 μg/kg i.v. 30 minutes after test substance, read-out: dose inhibiting isoproterenol-induced tachycardia by 50-60%, intraduodenal administration

| Compound | ED (50-60%) [1, 4] [mg/kg] | ED (50-60%) [1, 5] [mg/kg] | factor by which the dose required for 50-60% inhibition is lower than the corresponding dose of propranolol, intraduodenal [1] | % inhibition of isoproterenol-induced tachycardia, intraduodenal administration ([1]; intraduodenal) [%] | factor by which the dose required is lowered compared with propranolol, intravenous [1] | % inhibition of isoproterenol-induced tachycardia, intravenous administration ([1]; intravenous) [%] | ED50 ([2]; conscious dogs, intravenous, isoproterenol 1 μg/kg i.v.) [mg/kg] | times as active as propranolol (ED 50%) ([2]; conscious dogs, intravenous, vs propranolol) [times] | LD50 at 24 h [3] [mg/kg] | ED50 ([2]; iv) [mg/kg] | increase in heart rate produced by isoproterenol ([1]; cats narcotized with hexobarbital, 1 μg/kg intravenously) [beats/min.] | increase in heart rate caused by isoproterenol ([2]; conscious dogs, 1 μg/kg intravenously) |
| --- | --- | --- | --- | --- | --- | --- | --- | --- | --- | --- | --- | --- |
| CC(C)(C)NCC(O)COc1cccc2c1CCCC(=O)N2 (centres unmarked) [Example 2, 6-(2-hydroxy-3-tert.-butylaminopropoxy)-2,3,4,5-tetrahydro-1H-1-benzazepin-2-one hydrochloride] | 0.0215 | 0.215 | 4.7 | 52 | 4.7 | 57 | 0.0043 | 24 | 237 | – | – | – |
| CC(C)NCC(O)COc1cccc2c1CCCC(=O)N2 (centres unmarked) [Example 1, 6-(2-hydroxy-3-isopropylaminopropoxy)-2,3,4,5-tetrahydro-1H-1-benzazepin-2-one] | 0.215 | 0.464 | 2 | 56 | 2 | 59 | – | – | – | – | – | – |
| CC(C)NCC(O)COc1cccc2ccccc12 (centres unmarked) [Propranolol, reference compound] | – | – | – | 57 | – | 52 | – | – | – | 0.1 | – | – |
| CC(C)NCC(O)c1ccc(O)c(O)c1 (centres unmarked) [Isoproterenol, reference compound] | – | – | – | – | – | – | – | – | – | – | 61±2.4 | about 100 beats/min. |
